Here are results for three compounds from PMC11873650 (Acta Pharmaceutica Sinica. B, 2024).

In series [1] the target is phosphorylated PAK4 (p-PAK4) (Homo sapiens, UniProt O96013). Nature of the series: Western blot of PAK4 phosphorylation in MIA PaCa-2 cells. It counts as cell-based. The note with it: for level of p-PAK4: MIA PaCa-2 cells, 1 μmol/L, 72 h.
Series [2] relates to phosphorylated β-Catenin (p-β-Catenin). Nature of the series: Western blot of β-Catenin phosphorylation in MIA PaCa-2 cells. The following applies: for level of p-β-Catenin: MIA PaCa-2 cells, 1 μmol/L, 72 h. In kind it is cell-based, human.
Series [3] can be described thus: Pharmacokinetics in rats. In kind it is in vivo. The following applies: rat, plasma.
Series [4] concerns Pan02 allograft. Nature of the series: Pan02 syngeneic model. The note with it: 100 mg/kg intraperitoneally three times per five days, 26 days. In kind it is in vivo, C57BL/6 mice.
For series [5], the system named is MIA PaCa-2 xenograft. The note with it: 100 mg/kg q.d. intraperitoneally.

phosphorylated PAK4 (p-PAK4), sequence (O96013 whole entry): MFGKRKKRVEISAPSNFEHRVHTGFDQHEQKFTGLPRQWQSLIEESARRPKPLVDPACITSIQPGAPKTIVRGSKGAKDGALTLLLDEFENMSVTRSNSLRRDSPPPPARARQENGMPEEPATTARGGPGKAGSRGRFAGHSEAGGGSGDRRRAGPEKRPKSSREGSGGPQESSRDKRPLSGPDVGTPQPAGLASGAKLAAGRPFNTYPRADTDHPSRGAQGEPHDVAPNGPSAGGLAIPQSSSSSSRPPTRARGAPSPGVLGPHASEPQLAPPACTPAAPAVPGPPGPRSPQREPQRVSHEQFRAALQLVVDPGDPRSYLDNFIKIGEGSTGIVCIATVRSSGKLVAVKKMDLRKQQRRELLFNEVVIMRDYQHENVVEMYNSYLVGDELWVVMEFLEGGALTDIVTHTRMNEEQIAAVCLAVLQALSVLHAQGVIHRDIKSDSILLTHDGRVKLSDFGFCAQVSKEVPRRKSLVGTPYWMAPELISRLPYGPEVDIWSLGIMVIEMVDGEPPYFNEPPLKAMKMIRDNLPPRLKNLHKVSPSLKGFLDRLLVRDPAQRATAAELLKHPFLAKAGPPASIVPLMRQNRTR

As to `Nc1ccc(/C=C/C(=O)N2CCc3c(oc4c(-c5ccc(F)cc5)cc(-c5ccc(C(=O)N6CCOCC6)nn5)cc34)C2)cn1` [Compound 19, (E)-3-(6-Aminopyridin-3-yl)-1-(8-(4-fluorophenyl)-6-(6-(morpholine-4-carbonyl)pyridazin-3-yl)-3,4-dihydrobenzofuro[2,3-c]pyridin-2(1H)-yl)prop-2-en-1-one], the “level of p-PAK4” value in series [1] is recorded as “superior to 4”. For the same compound, the “level of p-β-Catenin” value in series [2] is “superior to 4”.

Turning to `Nc1ccc(/C=C/C(=O)NCc2cc3cc(-c4ccc(C(=O)N5CCC(F)(F)CC5)cc4)cc(-c4ccc(F)cc4)c3o2)cn1` [Compound 4], the IC50 came out at 1890 nM in series [1] and 2070 nM in series [2] (Homo sapiens, MIA PaCa-2, 72 h, read-out: IC50 against p-β-Catenin). The AUC(0-t) in series [3] (iv, 1 mg/kg) came to 94400 ng·h/mL; in series [3] (po, 3 mg/kg) it was 55500 ng·h/mL. The tumor growth inhibition entry in series [4] is listed as “modest tumor growth inhibition”. Besides, the mortality entry in series [5] (20-day study) was “two mice”. In addition, the “tumor growth inhibition rate (TGI)” value in series [5] (20 days) worked out at 77.8%.

Take `Nc1ccc(/C=C/C(=O)N2CCc3c(oc4c(-c5ccc(F)cc5)cc(-c5ccc(C(=O)N6CCC(F)(F)CC6)nn5)cc34)C2)cn1` [Compound 18, (E)-3-(6-Aminopyridin-3-yl)-1-(6-(6-(4,4-difluoropiperidine-1-carbonyl)pyridazin-3-yl)-8-(4-fluorophenyl)-3,4-dihydrobenzofuro[2,3-c]pyridin-2(1H)-yl)prop-2-en-1-one]: in series [1], the “level of p-PAK4” value is “superior to 4”. The “level of p-β-Catenin” value in series [2] was “superior to 4”.
